Results from patent publication US10745401B2, “Condensed lactam derivative” (Sumitomo Dainippon Pharma Co., Ltd., priority 2018, dated 2020).

How the values were obtained:
human 5-HT1A receptor [1] = target: T1, human 5-HT1A receptor (Homo sapiens (Human), UniProt P08908); assay: Test 2: agonist activity for human 5-HT1A receptor ([35S]GTPγS binding); format: biochemical; settings: for Emax at 10 µM: agonist activity in the presence of 10 μM of compound, relative to 100 μmol/L 5-HT; for EC50: [35S]GTPγS binding, concentration at which half the activity of Emax was obtained
T1 sequence (P08908 whole entry): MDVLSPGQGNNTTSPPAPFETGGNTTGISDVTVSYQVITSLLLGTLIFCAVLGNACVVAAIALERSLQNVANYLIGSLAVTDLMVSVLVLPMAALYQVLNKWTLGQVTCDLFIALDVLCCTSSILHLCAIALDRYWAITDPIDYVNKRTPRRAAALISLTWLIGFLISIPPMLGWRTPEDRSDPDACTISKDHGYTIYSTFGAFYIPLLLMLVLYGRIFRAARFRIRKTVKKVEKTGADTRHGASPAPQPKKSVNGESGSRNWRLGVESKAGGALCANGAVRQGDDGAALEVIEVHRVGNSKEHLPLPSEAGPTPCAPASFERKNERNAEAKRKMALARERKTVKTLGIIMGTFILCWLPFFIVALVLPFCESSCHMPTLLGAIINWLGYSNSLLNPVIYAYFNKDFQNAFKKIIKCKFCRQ
How it was run: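 Membranes from CHO cells expressing human 5-HT1A incubated with compound, GDP-containing buffer and [35S]GTPγS for 60 min at room temperature. Bound radioactivity collected by glass-fibre filtration and counted by liquid scintillation; agonist activity derived from a formula.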

human 5-HT2A receptor [2] = target: T2, human 5-HT2A receptor (Homo sapiens (Human), UniProt P28223); assay: Test 3: antagonist activity for human 5-HT2A receptor (aequorin luminescence, CHO-K1 cells); format: cell-based; settings: for IC50: CHO-K1 cells, 1 nmol/L 5-HT
T2 sequence (P28223 whole entry): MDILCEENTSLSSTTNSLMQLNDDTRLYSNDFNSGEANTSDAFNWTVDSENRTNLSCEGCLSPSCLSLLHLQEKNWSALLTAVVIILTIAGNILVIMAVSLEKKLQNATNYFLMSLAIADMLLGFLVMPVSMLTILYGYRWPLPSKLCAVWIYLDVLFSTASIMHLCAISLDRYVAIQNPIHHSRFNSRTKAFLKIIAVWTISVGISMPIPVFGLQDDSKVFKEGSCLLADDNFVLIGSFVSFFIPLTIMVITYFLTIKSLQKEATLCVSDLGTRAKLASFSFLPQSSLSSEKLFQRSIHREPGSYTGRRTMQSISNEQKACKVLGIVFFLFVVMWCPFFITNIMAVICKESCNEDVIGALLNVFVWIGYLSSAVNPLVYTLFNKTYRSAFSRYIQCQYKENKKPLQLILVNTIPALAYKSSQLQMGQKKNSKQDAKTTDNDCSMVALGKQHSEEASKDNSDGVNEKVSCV
Description: Test 3: Evaluation of Antagonist Activity for Human 5-HT2A Receptor
Aequorin, Gα16 protein, and each receptor were transiently expressed in CHO-K1 cells (Chinese hamster ovary). […] Each compound dissolved in DMSO was added thereto, and changes in luminescence were measured by FDSS/μCELL functional drug screening system (Hamamatsu Photonics K.K.). Antagonist activity was calculated from the following formula. Antagonist activity (%)=100×{(Luminescence of well in the presence of 1 nmol/L 5-HT−Luminescence of well containing solvent)−(Luminescence of well in the presence of test compound and 1 nmol/L 5-HT−Luminescence of well containing solvent)}/(Luminescence of well in the presence of 1 nmol/L 5-HT−Luminescence of well containing solvent)

hERG channel = hERG channel (Homo sapiens (Human), UniProt Q12809); assay: Test 6-1: inhibitory activity for hERG channel (auto patch clamp, Qpatch); format: cell-based; settings: whole cell auto patch clamp, hERG-CHO cells; read-out: hERG inhibition IC50
Chain of hERG channel (Q12809 whole entry): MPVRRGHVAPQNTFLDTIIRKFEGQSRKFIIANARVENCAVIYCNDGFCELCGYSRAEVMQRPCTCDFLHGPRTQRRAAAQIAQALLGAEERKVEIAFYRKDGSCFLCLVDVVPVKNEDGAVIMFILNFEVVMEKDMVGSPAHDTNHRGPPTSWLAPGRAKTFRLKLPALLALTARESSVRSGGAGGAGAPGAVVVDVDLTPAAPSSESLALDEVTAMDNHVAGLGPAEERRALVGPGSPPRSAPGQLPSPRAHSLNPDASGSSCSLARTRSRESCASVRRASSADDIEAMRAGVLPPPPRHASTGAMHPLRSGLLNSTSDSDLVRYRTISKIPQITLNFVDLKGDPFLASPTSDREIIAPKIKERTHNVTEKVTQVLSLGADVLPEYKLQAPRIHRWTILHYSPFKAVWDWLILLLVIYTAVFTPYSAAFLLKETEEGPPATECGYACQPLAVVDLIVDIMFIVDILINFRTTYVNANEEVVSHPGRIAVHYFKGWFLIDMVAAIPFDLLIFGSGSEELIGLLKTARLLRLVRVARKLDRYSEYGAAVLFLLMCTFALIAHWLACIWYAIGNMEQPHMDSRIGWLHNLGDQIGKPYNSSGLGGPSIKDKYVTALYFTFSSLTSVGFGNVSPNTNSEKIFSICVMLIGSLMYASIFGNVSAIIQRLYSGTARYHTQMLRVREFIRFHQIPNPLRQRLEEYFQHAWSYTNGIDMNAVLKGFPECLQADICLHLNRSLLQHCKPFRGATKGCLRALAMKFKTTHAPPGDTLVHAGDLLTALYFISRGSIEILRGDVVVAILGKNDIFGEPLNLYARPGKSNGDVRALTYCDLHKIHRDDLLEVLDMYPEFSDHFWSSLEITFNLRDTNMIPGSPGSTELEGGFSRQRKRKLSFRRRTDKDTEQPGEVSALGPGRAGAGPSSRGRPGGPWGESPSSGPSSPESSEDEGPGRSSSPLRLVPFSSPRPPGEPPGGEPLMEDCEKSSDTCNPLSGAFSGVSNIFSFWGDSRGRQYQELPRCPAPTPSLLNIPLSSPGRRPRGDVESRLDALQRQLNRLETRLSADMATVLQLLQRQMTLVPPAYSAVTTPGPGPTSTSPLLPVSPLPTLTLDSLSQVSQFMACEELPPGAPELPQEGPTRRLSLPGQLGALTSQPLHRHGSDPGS
How it was run: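 Whole-cell patch clamp on an automated system using CHO cells stably expressing human hERG (IKr); 15 s pulse interval. Four increasing compound concentrations applied cumulatively; mean peak tail current from last 3 stimulations per concentration used. IC50 from inhibition versus pre-compound current, fitted by Hill equation.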

human 5-HT2A receptor [3] = target: T2, human 5-HT2A receptor; assay: Test 1: binding activity for human 5-HT2A receptor ([3H]Ketanserin, CHO cell membrane fraction)
Description: Test 1: Evaluation of Binding Activity for Human 5-HT1A Receptor, Human 5-HT2A Receptor, and Human D2 Receptor
Binding affinity of the present compound for human 5-HT1A receptor, human 5-HT2A receptor, and human D2 receptor was measured by the following procedures.
Each mixture was incubated at room temperature for 60 minutes. Then, the mixture was added quickly on a glassfiber filter plate (Multiscreen FB, Millipore, Inc.) coated with 0.3% aqueous polyethylenimine, and vacuum-filtered. Radioactivity remaining on the filter was measured with a liquid scintillation counter (PerkinElmer, Inc.). Binding inhibition rate was calculated from the following formula.
Ki of each compound was calculated from the following formula. Binding inhibition constant (Ki)=IC50/(1+S/Kd) wherein S is concentration of ligand; Kd is a binding dissociation constant of ligand to membrane, which is calculated from a saturated binding experiment conducted with the same cell membrane. A small Ki value means strong binding ability to a receptor.

[4] = Test 4: metabolic stability test in human hepatic microsome; format: in vitro ADME; settings: 0.1 mg/mL microsome, 0.1 μmol/L compound, 37° C., 30 minutes
How it was run: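 Compound at 0.1 μmol/L incubated 30 min at 37° C with human liver microsomes (0.1 mg/mL) and NADPH (3.2 mmol/L) in 25 mmol/L phosphate buffer, pH 7.4. Residual compound measured by LC-MS; stability (mL/min/mg protein) = −LN(residual ratio)/30/0.1.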

human D2 receptor = human D2 receptor (Homo sapiens (Human), UniProt P14416); assay: Test 1: binding activity for human D2 receptor ([3H]Spiperone, CHO cell membrane fraction); settings: for Ki: human D2 receptor, [3H]Spiperone; for D2 Ki/5-HT1A Ki / D2 Ki/5-HT2A Ki: selectivity ratio
Chain of human D2 receptor (P14416 whole entry): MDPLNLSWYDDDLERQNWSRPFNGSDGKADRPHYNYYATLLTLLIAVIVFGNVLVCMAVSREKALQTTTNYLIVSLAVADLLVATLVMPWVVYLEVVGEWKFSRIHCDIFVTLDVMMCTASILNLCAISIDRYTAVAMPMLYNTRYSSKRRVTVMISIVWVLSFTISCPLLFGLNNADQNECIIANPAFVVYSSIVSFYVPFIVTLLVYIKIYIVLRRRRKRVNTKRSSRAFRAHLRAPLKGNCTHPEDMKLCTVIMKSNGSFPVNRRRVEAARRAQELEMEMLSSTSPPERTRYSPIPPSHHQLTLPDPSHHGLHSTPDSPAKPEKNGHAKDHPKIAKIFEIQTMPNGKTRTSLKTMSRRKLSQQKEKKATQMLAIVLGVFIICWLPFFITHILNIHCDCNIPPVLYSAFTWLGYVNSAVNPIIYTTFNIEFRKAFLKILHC
How it was run: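 CHO-cell membranes with [3H]ketanserin (5-HT2A) or [3H]spiperone (D2) were incubated with compound for 60 min at room temperature, then filtered, and bound radioactivity was counted by scintillation. Ki = IC50/(1+S/Kd), with ligand Kd from saturation binding on the same membranes.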

human 5-HT1A receptor [5] = target: T1, human 5-HT1A receptor; assay: Test 1: binding activity for human 5-HT1A receptor ([3H]8-OH-DPAT, CHO cell membrane fraction)
How it was run: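 Membranes incubated with [3H]8-OH-DPAT and compound for 60 min at room temperature, then filtered on polyethylenimine-coated glass-fibre plates and counted by liquid scintillation. IC50 from Hill analysis; Ki = IC50/(1+S/Kd), Kd from saturation binding on the same membranes.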

Row | Compound | Emax at 10 µM (human 5-HT1A receptor [1]) [%] | IC50 (human 5-HT2A receptor [2]) [nM] | IC50 (hERG channel) [nM] | Ki (human 5-HT2A receptor [3]) [nM] | Metabolic stability in human hepatic microsome [4] [mL/min/mg protein] | EC50 (human 5-HT1A receptor [1]) [nM] | IC50 (human 5-HT2A receptor [2]; aequorin luminescence) [nM] | Ki (human D2 receptor) [nM] | Ki (human 5-HT1A receptor [5]) [nM] | D2 Ki/5-HT1A Ki (human D2 receptor) | D2 Ki/5-HT2A Ki (human D2 receptor) | activity at 10 µM (human 5-HT2A receptor [2]; CHO-K1) [%]
1 | O=C1c2cnc(C(F)(F)F)cc2CCN1CCN1CCN(c2nsc3ccccc23)CC1 [Example 110, 2-{2-[4-(1,2-Benzoisothiazol-3-yl)piperazin-1-yl]ethyl}-6-(trifluoromethyl)-3,4-dihydro-2,7-naphthyridin-1(2H)-one] | 65 | 42.4 | 2400 | 2.6 | 0.353 |  |  |  |  |  |  | 
2 | Cc1cccc2c(C3CCN(CCN4CCc5cccnc5C4=O)CC3)noc12 [Example 120] |  |  |  | 91 |  | 630 | 912 | > 10000 | 340 |  |  | 
3 | O=C1c2cncnc2CCN1CCN1CCC(c2noc3ccccc23)CC1 [Example 57] | 61 | 76.7 | 2200 | 7.6 | 0.013 |  |  |  |  |  |  | 
4 | CC1CN(CCN2CCC(c3noc4ccccc34)CC2)C(=O)c2ccn(C)c21 (stereo not shown) [Example 82] | 61 | 46 | 1900 | 0.87 | 0.072 |  |  |  |  |  |  | 
5 | O=C1c2ncccc2CCN1CCN1CCC(c2noc3c(F)cccc23)CC1 [Example 140] | 27 |  |  | 118 |  | 2300 | 373 | > 10000 | 168 | >59.5 | >84.7 | 
6 | Cn1cc2c(n1)CCN(CCN1CCC(c3noc4ccccc34)C1)C2=O (stereo not shown) [Example 174] | 50 |  |  | 71.7 |  | 193 | 723 | > 10000 | 78.1 | >128.0 | >139.5 | 
7 | Cn1cc2c(n1)CCN(CCN1CCN(c3noc4ccccc34)CC1)C2=O [Example 81] | 60 | 83 | > 10000 | 10 | <0.01 |  |  |  |  |  |  | 
8 | Cc1noc2c1C(=O)N(CCN1CCN(c3nsc4ccccc34)CC1)CC2 [Example 34] | 54 | 8 | 2500 | 0.7 | 0.124 |  |  |  |  |  |  | 
9 | Cn1ccc2c1CCCN(CCN1CCN(c3nsc4ccccc34)CC1)C2=O [Example 165] | 44 |  | 7900 | 1.2 | 0.265 |  | 15.4 |  |  |  |  | 
10 | Cc1nc2c(o1)CCCN(CCN1CCN(c3nsc4ccccc34)CC1)C2=O [Example 52] | 77 | 12 | 4900 | 4.7 | 0.043 |  |  |  |  |  |  | 
11 | Cc1cc2c(C3CCN(CCN4CCc5cccnc5C4=O)CC3)noc2cc1F [Example 6] | 31 | 651 | 2200 | 68 | 0.061 |  |  |  |  |  |  | 
12 | O=C1c2ncccc2CCN1CCN1CCN(c2nsc3ccccc23)CC1 [Example 7] | 55 | 7.83 | 5200 | 2.63 | 0.041 |  |  |  |  |  |  | 
13 | Cn1ncc2c1CCCC(CCN1CCN(c3nsc4ccccc34)CC1)C2=O (stereo not shown) [Example 31] | 40 | 2.71 | 1200 | 0.47 | 0.305 |  |  |  |  |  |  | 
14 | Cc1c2c(nn1C)CCN(CCN1CCN(c3noc4ccccc34)CC1)C2=O [Example 171] | 56 |  | 6600 | 2.6 | <0.05 |  | 45.9 |  |  |  |  | 
15 | CC1CN(CCN2CCN(c3noc4ccccc34)CC2)C(=O)c2ccn(C)c21 (stereo not shown) [Example 83] | 61 | 49 | 8000 | 4 | 0.135 |  |  |  |  |  |  | 
16 | O=c1c2cccnc2ccn1CCN1CCN(c2nsc3ccccc23)CC1 [Example 10] |  | 0.71 |  | 0.49 |  | 119 |  |  | 20 |  |  | 
17 | O=C1c2ncccc2CCN1CCN1CCC(c2nsc3ccccc23)CC1 [Example 26] | 50 | 4.49 | 800 | 1.92 | <0.01 |  |  |  |  |  |  | 
18 | Cn1cc2c(n1)C(=O)N(CCN1CCN(c3nsc4ccccc34)CC1)CCC2 [Example 49] | 64 | 7.02 | 5900 | 1.8 | 0.063 |  |  |  |  |  |  | 
19 | Cc1nc2c(o1)C(=O)N(CCN1CCN(c3nsc4ccccc34)CC1)CC2 [Example 45] | 65 | 27 | 7000 | 3.1 | 0.032 |  |  |  |  |  |  | 
20 | O=C1c2ncccc2CCN1CCN1CCC(c2noc3cc(F)c(F)cc23)CC1 [Example 148] |  |  |  | 43.2 |  |  |  |  | 156 |  |  | 45
21 | Cn1ncc2c1CCCC(CCN1CCC(c3noc4ccccc34)CC1)C2=O (stereo not shown) [Example 30] | 42 | 43 | 900 | 0.76 | 0.065 |  |  |  |  |  |  | 
22 | Cc1noc2c1C(=O)N(CCN1CCN(c3nsc4ccccc34)CC1)CCC2 [Example 40] | 60 | 8.7 | 1800 | 4.86 | 0.278 |  |  |  |  |  |  | 
23 | Cc1ccc2c(n1)C(=O)N(CCN1CCC(c3noc4ccccc34)CC1)CC2 [Example 184] | 59 |  | 800 | 27 | <0.05 |  | 95.5 |  |  |  |  | 
24 | O=c1c2cccnc2ccn1CCN1CCN(c2noc3ccccc23)CC1 [Example 115] | 37 |  | 5000 | 1.07 | <0.05 |  | 4.28 | > 10000 |  |  |  | 
25 | Cc1nc2c(o1)C(=O)N(CCN1CCN(c3nsc4ccccc34)CC1)CCC2 [Example 46] | 58 | 52 | 3700 | 2.8 | 0.018 |  |  |  |  |  |  | 
26 | O=C1c2ncccc2CCC1CCN1CCN(c2nsc3ccccc23)CC1 (stereo not shown) [Example 25] | 57 | 5.54 | 400 | 3.01 | 0.398 |  |  |  |  |  |  | 
27 | O=C1c2ncccc2CCC1CCN1CCN(c2noc3ccccc23)CC1 (stereo not shown) [Example 23] | 55 | 7.29 | 1900 | 6 | 0.109 |  |  |  |  |  |  | 
28 | O=C1c2ncccc2CCN1CCN1CCC(c2noc3ccccc23)CC1 [Example 22, 7-{2-[4-(1,2-Benzoisoxazol-3-yl)piperidin-1-yl]ethyl}-6,7-dihydro-1,7-naphthyridin-8(5H)-one] | 52 | 94 | 1900 | 4.4 | 0.039 |  |  | 2600 |  |  |  | 
